Measurements reported in article PMC9599717, “The Multicellular Effects of VDAC1 N-Terminal-Derived Peptide” (Biomolecules, 2022).

Key:
[1] = system: HeLa (human cervix adenocarcinoma); test: Cell death by PI staining and flow cytometry (FACS), HeLa; assay type: cell-based; conditions: HeLa cells
Protocol: MEC-1 cells were incubated in a serum-free medium with various concentrations of VDAC1-based peptides for 1.5 h at room temperature (RT), collected by centrifugation, washed with phosphate-buffered saline (PBS), and analyzed for cell death. Adherent cancer cells were seeded in culture plates and allowed to adhere overnight in a sterile cell culture incubation chamber maintained at 37 °C and 5% CO2. The next day, media was removed from the plates, and cells were treated with various concentrations of VDAC1-based peptides for the indicated time in serum-free Dulbecco’s Modified Eagle Medium (DMEM) with and without DMSO (final 0.15%) as a control for 6 h at 37 °C and 5% CO2. Cells were trypsinized, centrifuged (1500× g, 5 min), and washed with PBS.
Cell death was analyzed by the propidium iodide (PI) staining, followed by flow cytometry with the iCyt sy3200 Benchtop Cell Sorter/Analyzer and analysis with EC800 v 1.3.7 software (Sony Biotechnology Inc., San Jose, CA, USA). Apoptosis was analyzed by PI and annexin V-FITC staining, which was carried out according to the manufacturer’s instructions with minor modifications. […] Next, cells were washed and PI (6.25 μg/mL), was added immediately before flow cytometry At least 10,000 events were collected, recorded on a dot plot, and analyzed by flow cytometry. […]

[2] = system: U-87MG cells; test: Cell morphology / cell size by light microscopy; assay type: cell-based, human; conditions: 16 h treatment
Protocol: Cells were seeded in a 6-well plates, treated with D-Δ(1-18)N-Ter-Antp peptide for 24 h, and monitored with the Holomonitor live cell imaging system (Holographic Imaging, Lund, Sweden) for 24 h at 37 °C and 5% CO2 or with a microscope (LX2-KSP; Olympus, Shinjuku, Tokyo, Japan), with images captured by a CCD camera.
Figure 2 D-Δ(1-18)N-Ter-Antp-induced changes in cell morphology and cell membrane permeability. (A,B) U-87MG cells were treated with the indicated concentrations of D-Δ(1-18)N-Ter-Antp peptide for 16 h, and cell morphology was monitored by light microscope (A). Quantification of cell size (B). (C,D) U-87MG cells were untreated or treated with 10 μM of D-Δ(1-18)N-Ter-Antp peptide or N-TerΔ(21-26)-Antp for 24 h, and cell morphology was monitored by light microscope (C). Quantification of cell size (D). (E,F) Cells were stained with anti-vinculin antibodies, followed by secondary anti-mouse-cy3 antibodies. Scale bars are 20 μm. White arrows point to focal adhesion (E). Quantification of vinculin staining intensity (F). (G) D-Δ(1-18)N-Ter-Antp-induced cell membrane permeability changes in HeLa cells. Cells were treated with D-Δ(1-18)N-Ter-Antp peptide (10 µM) for 6 h and subjected to FM4-64 dye staining. Yellow arrows point to apoptotic cells with apoptotic bodies. (H) Quantification of fluorescence intensity of FM4-64. * p < 0.05, *** p < 0.001, **** p < 0.0001 (n = 3). […]

## 19-FTKGYGFGL-26- RQIKIWFQNRRMKWKK [D-Δ(1-18)N-Ter-Antp]
[1]; 6 h
  Maximal cell death (at the concentration for maximal cell death): 100%
[1]; 6 h incubation, serum-free medium, PI staining and FACS, read-out: IC50, peptide concentration required for half-maximal cell death activity
  IC50: 2000 nM
[2]
  Enlarged cell area relative to untreated cells: up to 3 fold
